Test results from ChEMBL document CHEMBL1121950, “Species- or isozyme-specific enzyme inhibitors. 9. Selective effects in inhibitions of rat pyruvate kinase isozymes by adenosine 5'-diphosphate derivatives” (J Med Chem, 1982).

How the values were obtained:
[1] = molecular target: Pyruvate kinase PKM (Rattus norvegicus) (UniProt P11980); assay: Ratio of Km(ADP)/Ki or Km for rat muscle pyruvate kinase
[2] = molecular target: Pyruvate kinase PKLR (Rattus norvegicus) (UniProt P12928); assay: Relative inhibitory potency as ratio of kidney and liver pyruvate kinases
[3] = molecular target: Pyruvate kinase PKLR (Rattus norvegicus) (UniProt P12928); assay: Ratio of Km(ADP)/Ki or Km for rat liver pyruvate kinase
[4] = species on record: Rattus norvegicus; assay: Relative inhibitory potency as ratio of muscle and liver pyruvate kinases
[5] = species on record: Rattus norvegicus; assay: Relative half maximal velocity of Pyruvate kinase to Phosphoenolpyruvate was determined
[6] = molecular target: Pyruvate kinase PKM (Rattus norvegicus) (UniProt P11980); assay: (§1) Relative half maximal velocity of Pyruvate kinase and Phosphoenolpyruvate
[7] = molecular target: Pyruvate kinase PKLR (Rattus norvegicus) (UniProt P12928); assay: as §1
[8] = molecular target: Pyruvate kinase PKM (Rattus norvegicus) (UniProt P11980); assay: as §1; remark: listed apart in the source
[9] = molecular target: Pyruvate kinase PKM (Rattus norvegicus) (UniProt P11980); assay: Ratio of Km(ADP)/Ki or Km for rat muscle pyruvatre kinase; (inhibitory potency at 2.35 mM)
[10] = test system: Nc1nc(N)c2ncn(C3O[C@H](COP(=O)(O)OP(=O)(O)O)[C@@H](O)[C@H]3O)c2n1; assay: (§2) Michaelis-Menten constant for inhibition of pyruvate kinase obtained from rat muscle (PK-M) was determined using ADP as competitive inhibitor
[11] = test system: CNc1nc(N)c2ncn(C3O[C@H](COP(=O)(O)OP(=O)(O)O)[C@@H](O)[C@H]3O)c2n1; assay: as §2
[12] = test system: CC(=O)N(C)CCCCN(C)c1ncnc2c1ncn2[C@@H]1O[C@H](COP(=O)(O)OP(=O)(O)O)[C@@H](O)[C@H]1O; assay: as §2
[13] = test system: Nc1ncnc2c1nc(Br)n2[C@@H]1O[C@H](COP(=O)(O)OP(=O)(O)O)[C@@H](O)[C@H]1O; assay: as §2
[14] = test system: CNc1nc2c(N)ncnc2n1C1O[C@H](COP(=O)(O)OP(=O)(O)O)[C@@H](O)[C@H]1O; assay: as §2
[15] = test system: CSc1nc(N)c2ncn([C@@H]3O[C@H](COP(=O)(O)OP(=O)(O)O)[C@@H](O)[C@H]3O)c2n1; assay: as §2
[16] = test system: CO[C@@H]1[C@H](O)[C@@H](COP(=O)(O)OP(=O)(O)O)O[C@H]1n1cnc2c(N)ncnc21; assay: as §2
[17] = test system: Nc1ncnc2c1ncn2[C@@H]1O[C@H](COP(=O)(O)OP(=O)(O)O)[C@@H](O)[C@H]1O; assay: as §2
[18] = test system: C[C@H](OP(=O)(O)OP(=O)(O)O)[C@H]1OC(n2cnc3c(N)ncnc32)[C@H](O)[C@@H]1O; assay: as §2
[19] = test system: C=CC[C@]1(COP(=O)(O)OP(=O)(O)O)OC(n2cnc3c(N)ncnc32)[C@H](O)[C@@H]1O; assay: as §2
[20] = test system: Nc1nc(N)c2ncn(C3O[C@H](COP(=O)(O)OP(=O)(O)O)[C@@H](O)[C@H]3O)c2n1; assay: (§3) Michaelis-Menten constant for inhibition of pyruvate kinase obtained from rat liver (PK-L) was determined using ADP as competitive inhibitor
[21] = test system: CNc1nc(N)c2ncn(C3O[C@H](COP(=O)(O)OP(=O)(O)O)[C@@H](O)[C@H]3O)c2n1; assay: as §3
[22] = test system: CC(=O)N(C)CCCCN(C)c1ncnc2c1ncn2[C@@H]1O[C@H](COP(=O)(O)OP(=O)(O)O)[C@@H](O)[C@H]1O; assay: as §3
[23] = test system: Nc1ncnc2c1nc(Br)n2[C@@H]1O[C@H](COP(=O)(O)OP(=O)(O)O)[C@@H](O)[C@H]1O; assay: as §3
[24] = test system: CNc1nc2c(N)ncnc2n1C1O[C@H](COP(=O)(O)OP(=O)(O)O)[C@@H](O)[C@H]1O; assay: as §3
[25] = test system: CSc1nc(N)c2ncn([C@@H]3O[C@H](COP(=O)(O)OP(=O)(O)O)[C@@H](O)[C@H]3O)c2n1; assay: as §3
[26] = test system: CO[C@@H]1[C@H](O)[C@@H](COP(=O)(O)OP(=O)(O)O)O[C@H]1n1cnc2c(N)ncnc21; assay: as §3
[27] = test system: Nc1ncnc2c1ncn2[C@@H]1O[C@H](COP(=O)(O)OP(=O)(O)O)[C@@H](O)[C@H]1O; assay: as §3
[28] = test system: C[C@H](OP(=O)(O)OP(=O)(O)O)[C@H]1OC(n2cnc3c(N)ncnc32)[C@H](O)[C@@H]1O; assay: as §3
[29] = test system: C=CC[C@]1(COP(=O)(O)OP(=O)(O)O)OC(n2cnc3c(N)ncnc32)[C@H](O)[C@@H]1O; assay: as §3

Pyruvate kinase PKM (Rattus norvegicus), P11980, sequence (P11980 whole entry): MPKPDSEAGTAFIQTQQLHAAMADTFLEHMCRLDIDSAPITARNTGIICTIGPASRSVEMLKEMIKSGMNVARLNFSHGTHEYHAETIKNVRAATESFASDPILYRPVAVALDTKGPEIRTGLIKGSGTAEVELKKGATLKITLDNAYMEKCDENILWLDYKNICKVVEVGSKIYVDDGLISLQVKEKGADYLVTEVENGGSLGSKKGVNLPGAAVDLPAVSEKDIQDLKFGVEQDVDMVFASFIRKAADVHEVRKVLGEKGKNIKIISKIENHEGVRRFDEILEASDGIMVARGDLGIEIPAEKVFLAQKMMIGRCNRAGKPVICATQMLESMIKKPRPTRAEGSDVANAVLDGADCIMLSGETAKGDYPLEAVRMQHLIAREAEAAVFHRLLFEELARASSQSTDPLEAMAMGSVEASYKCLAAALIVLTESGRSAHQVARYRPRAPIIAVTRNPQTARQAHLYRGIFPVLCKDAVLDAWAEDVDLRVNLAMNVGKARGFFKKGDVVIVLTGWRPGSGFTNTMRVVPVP
Pyruvate kinase PKM (Rattus norvegicus), sequence (P11980 whole entry): as above
Pyruvate kinase PKLR (Rattus norvegicus), P12928, sequence (P12928 whole entry): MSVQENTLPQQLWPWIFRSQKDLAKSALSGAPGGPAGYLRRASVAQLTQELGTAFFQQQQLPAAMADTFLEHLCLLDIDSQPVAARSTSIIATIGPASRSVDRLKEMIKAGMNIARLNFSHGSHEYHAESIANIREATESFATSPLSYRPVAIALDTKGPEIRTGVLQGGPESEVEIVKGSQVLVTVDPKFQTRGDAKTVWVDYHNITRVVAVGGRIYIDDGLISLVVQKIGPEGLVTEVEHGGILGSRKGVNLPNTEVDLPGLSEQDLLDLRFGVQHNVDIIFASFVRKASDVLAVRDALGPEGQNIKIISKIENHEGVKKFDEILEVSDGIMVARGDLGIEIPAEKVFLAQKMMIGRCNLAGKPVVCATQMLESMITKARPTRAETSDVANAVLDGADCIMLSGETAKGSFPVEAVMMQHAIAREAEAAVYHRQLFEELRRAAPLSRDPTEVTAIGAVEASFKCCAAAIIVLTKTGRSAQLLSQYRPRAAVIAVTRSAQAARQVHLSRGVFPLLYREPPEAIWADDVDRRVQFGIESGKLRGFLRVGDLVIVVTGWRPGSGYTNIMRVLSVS
Pyruvate kinase PKLR (Rattus norvegicus), sequence (P12928 whole entry): as above

Row | Compound | Inhibitory potency [1] | Relative inhibitory potency [2] | Inhibitory potency [3] | Relative inhibitory potency [4] | Relative Vmax [5] | Relative Vmax [6] | Relative Vmax [7] | also measured
1 | CNc1nc(N)c2ncn(C3O[C@H](COP(=O)(O)OP(=O)(O)O)[C@@H](O)[C@H]3O)c2n1 (some centres undefined) | 2.7 | 1.4 | 2.5 | 1.1 | 85 | 77 | 86 | 
2 | CSc1nc(N)c2ncn([C@@H]3O[C@H](COP(=O)(O)OP(=O)(O)O)[C@@H](O)[C@H]3O)c2n1 | 4.7 | 1.12 | 5 | 0.94 | 67 | 77 | 72 | 
3 | C=CC[C@]1(COP(=O)(O)OP(=O)(O)O)OC(n2cnc3c(N)ncnc32)[C@H](O)[C@@H]1O (some centres undefined) |  |  |  |  | 11 | 7 | 52 | 
4 | CO[C@@H]1[C@H](O)[C@@H](COP(=O)(O)OP(=O)(O)O)O[C@H]1n1cnc2c(N)ncnc21 | 0.74 | 1.04 | 0.86 | 0.86 | 94 | 90 | 100 | 
5 | Nc1nc(N)c2ncn(C3O[C@H](COP(=O)(O)OP(=O)(O)O)[C@@H](O)[C@H]3O)c2n1 (some centres undefined) | 2 | 0.61 | 3.3 | 0.61 | 90 | 77 | 95 | 
6 | CC1O[C@@H]2[C@H](O1)[C@@H](COP(=O)(O)OP(=O)(O)O)O[C@H]2n1cnc2c(N)ncnc21 (some centres undefined) | 0.325 |  | 0.14 | 2.3 |  | 0 |  | Relative Vmax [8]: 0
7 | Pyruvate kinase PKM (Rattus norvegicus), P11980 |  |  |  |  |  |  |  | Km [10]: 260 µM; Km [11]: 190 µM; Km [12]: 3600 µM; Km [13]: 2900 µM; Km [14]: 560 µM; Km [15]: 110 µM; Km [16]: 700 µM; Km [17]: 520 µM; Km [18]: 2700 µM; Km [19]: 1300 µM
8 | C[C@@H](OP(=O)(O)OP(=O)(O)O)[C@H]1OC(n2cnc3c(N)ncnc32)[C@H](O)[C@@H]1O (some centres undefined) | 0.12 | 1.1 | 0.056 | 2.1 | > 0 | > 0 | > 0 | 
9 | CC(=O)N(C)CCCCN(C)c1ncnc2c1ncn2[C@@H]1O[C@H](COP(=O)(O)OP(=O)(O)O)[C@@H](O)[C@H]1O | 0.14 | 0.67 | 0.43 | 0.33 |  |  |  | 
10 | Pyruvate kinase PKLR (Rattus norvegicus), P12928 |  |  |  |  |  |  |  | Km [20]: 90 µM; Km [21]: 120 µM; Km [22]: 700 µM; Km [23]: 2300 µM; Km [24]: 160 µM; Km [25]: 61 µM; Km [26]: 350 µM; Km [27]: 300 µM; Km [28]: 1300 µM; Km [29]: 530 µM
11 | C[C@H](OP(=O)(O)OP(=O)(O)O)[C@H]1OC(n2cnc3c(N)ncnc32)[C@H](O)[C@@H]1O (some centres undefined) | 0.19 | 0.74 | 0.23 | 0.83 | 15 | 15 | 26 | 
12 | CO[C@H]1[C@@H](O)[C@H](n2cnc3c(N)ncnc32)O[C@@H]1COP(=O)(O)OP(=O)(O)O | 0.056 | 7.6 | 0.0094 | 6 | > 0 | > 0 | > 0 | 

Second part, led by results:

Row | Inhibitory potency [1] | Relative inhibitory potency [2] | Inhibitory potency [3] | Relative inhibitory potency [4] | Relative Vmax [5] | Relative Vmax [6] | Relative Vmax [7] | Compound | also measured
13 | 0.93 | 0.45 | 1.9 | 0.49 | 49 | 55 | 40 | CNc1nc2c(N)ncnc2n1C1O[C@H](COP(=O)(O)OP(=O)(O)O)[C@@H](O)[C@H]1O (some centres undefined) | 
14 | 0.18 | 1.3 | 0.13 | 1.4 |  | 6 | 14 | Nc1ncnc2c1nc(Br)n2[C@@H]1O[C@H](COP(=O)(O)OP(=O)(O)O)[C@@H](O)[C@H]1O | Relative Vmax [8]: 6
15 | 0.12 | 2.5 | 0.04 | 3 | 0 | 0 | 0 | CSc1nc2c(N)ncnc2n1C1O[C@H](COP(=O)(O)OP(=O)(O)O)[C@@H](O)[C@H]1O (some centres undefined) | 
16 | 0.14 | 3.6 | 0.036 | 3.9 | 0 | 0 | 0 | CCSc1nc2c(N)ncnc2n1C1O[C@H](COP(=O)(O)OP(=O)(O)O)[C@@H](O)[C@H]1O (some centres undefined) | 
17 | 1 | 1.2 | 0.14 | 7.1 | 0.7 | < 1 | < 1 | CCNc1nc2c(N)ncnc2n1C1O[C@H](COP(=O)(O)OP(=O)(O)O)[C@@H](O)[C@H]1O (some centres undefined) | 
18 |  |  |  |  | 100 | 100 | 100 | Nc1ncnc2c1ncn2[C@@H]1O[C@H](COP(=O)(O)OP(=O)(O)O)[C@@H](O)[C@H]1O | 
19 |  |  | 0.19 | 3.1 | 0 | 0 |  | CCCNc1nc2c(N)ncnc2n1C1O[C@H](COP(=O)(O)OP(=O)(O)O)[C@@H](O)[C@H]1O (some centres undefined) | Inhibitory potency [9]: 0.58
